In patent US12479846B2, “EZH2 inhibitor and use thereof” (PHARMABLOCK SCIENCES (NANJING) , INC., priority 2019, dated 2025):

Experiments:
Wild-type PRC2/EZH2 = target: T1, Wild-type PRC2/EZH2 (Homo sapiens, UniProt Q15910); experiment: PRC2/EZH2 HTRF enzyme inhibition test; type: biochemical; conditions: human recombinant PRC2 complex, 30 μM SAM, 10 μM biotin-H3 (21-44) peptide
T1 construct: purchased Reaction Biology (Malvern, PA); host or cells: insect cell/baculovirus expression system
Text: The human recombinant PRC2 complex was composed of human recombinant EZH2, AEBP2, EED, RbAp48, and SUZ12, co-expressed in an insect cell/baculovirus expression system, and purchased from Reaction Biology (Malvern, PA). […] The HTRF detection kit including monoclonal antibody histone H3K27Mel-Eu (K) fluorescent donor and streptavidin labeled XL665 fluorescent receptor was purchased from Cisbio (Shanghai, China). S-adenosylmethionine (SAM), Tween 20, dimethyl sulfoxide (DMSO), and Tris buffer at the highest purity level were purchased from Sigma.
The experiment was carried out in a buffer consisting of 50 mM Tris, pH 9.0, 0.1% BSA, and 0.01% Tween 20, and 1 mM DTT was added before the experiment started. 2.5 μL of a solution of a compound in 4% DMSO and 5 μL of PRC2/SAM mixed solution pre-incubated for 30 minutes were added to the buffer, and then the buffer was added to a white low-volume 384-well microtiter plate. The mixture solution was gently shaken and incubated at room temperature for 15 minutes. 2.5 μL of biotin-H3 (21-44) peptide substrate solution was added to the buffer to initiate the methyl transfer reaction. The final concentrations of PRC2, SAM, biotin-H3 peptide substrate, and DMSO were 2 ng/L, 30 μM, 10 μM, and 1%, respectively. The reaction was gently shaken at room temperature away from light for 120 minutes, and then 10 μL of monoclonal antibody histone H3K27Mel-Eu (K) fluorescent donor and streptavidin-labeled XL665 fluorescent receptor in the detection buffer from the manufacturer were added to the reaction mixture for incubation for 60 minutes. The final concentrations of these two reagents were 50 ng/ml and 62.5 nM, respectively. The plate was read on an Envision multi-template reader from PerkinElmer (Waltham MA USA) with an excitation wavelength of 320 nm and emission wavelengths of 665 and 615 nm. The IC50 value of the inhibitor was obtained by fitting an S-shaped dose-response curve (variable slope, four parameters) of fluorescence intensities at 665 nm and 615 nm over inhibitor concentrations by using Prism 7 (La Jolla, CA).

WSUDLCL-2 cells = experiment: Cell proliferation inhibition test (CCK8), WSUDLCL-2; type: cell-based; conditions: Homo sapiens, WSUDLCL2, 288 h; B-cell non-Hodgkin's lymphoma cell line, 12 days incubation, CCK8 cell viability
Text: (§1) Cell Proliferation Inhibition Test
(§2) Karpass 422 and WSUDLCL-2 cells were purchased from the European Collection of Authenticated Cell Cultures (ECACC) and the German Collection of Microorganisms and Cell Cultures (Deutsche Sammlung von Mikroorganismen und Zellkulturen, DSMZ). RMBI 1640 medium, penicillin-streptomycin, heat-inactivated fetal bovine senum (FBS), and horse serum were purchased from ThermoFisher (Waltham MA, USA). Corning 96-well cell culture plate was purchased from ThermoFisher (Waltham MA, USA).
(§3) To evaluate the inhibitory effect of the synthesized compounds on the proliferation of B-cell non-Hodgkin's lymphoma Karpass 422 and WSUDLCL-2 cells, exponentially growing cells were inoculated in RMPI1640 medium containing 20% and 10% horse serum and 1% penicillin-streptomycin at concentrations of 2000 cells/ml and 3000 cells/ml, respectively, in 96-well plates, 100 μL per well, and incubated overnight in an incubator at 37° C. and 5% CO2. The compound was prepared in DMSO into a 10-point, 3-fold series diluent, starting at 6 mM. 1 μL of DMSO solution from a compound reserve plate was added to 99 μL of cell culture medium (the final maximum concentration of the compound in the assay was 30 μM and the final concentration of DMSO was 0.5%). 100 μL of compound solution from the medium was added to each well of the Karpass422 cell plate. After the addition of the compound solution, the assay plate was incubated at 37° C. and 5% CO2 for 12 days. During the incubation, the cell culture medium was replaced with the cell culture medium having the newly dissolved test compound every 4 days. After 100 μL of the old medium was removed from the cell plate, 100 μL of medium having dissolved test compound was added to the assay plate, which was prepared by adding 1 μL of compound DMSO series solution to 199 μL of cell medium with the same layout as the original preparation layout. Cell viability was measured by using cell count kit-8 (CCK8) purchased from Beyotime Biotechnology (Shanghai, China). 20 μL of CCK8 reagent was added to each well of the assay plate and incubated at 37° C. for 2 hours. The O.D. at 450 nm was read by using a FlexStation 3 microplate reader (Molecular Devices, Sunnyvale, CA 94089 USA).

Karpas422 cells = experiment: Cell proliferation inhibition test (CCK8), Karpas422; type: cell-based; conditions: Homo sapiens, KARPAS-422, 288 h; B-cell non-Hodgkin's lymphoma cell line, 12 days incubation, CCK8 cell viability
Text: as §1, §2, §3

T1 sequence (Q15910 whole entry): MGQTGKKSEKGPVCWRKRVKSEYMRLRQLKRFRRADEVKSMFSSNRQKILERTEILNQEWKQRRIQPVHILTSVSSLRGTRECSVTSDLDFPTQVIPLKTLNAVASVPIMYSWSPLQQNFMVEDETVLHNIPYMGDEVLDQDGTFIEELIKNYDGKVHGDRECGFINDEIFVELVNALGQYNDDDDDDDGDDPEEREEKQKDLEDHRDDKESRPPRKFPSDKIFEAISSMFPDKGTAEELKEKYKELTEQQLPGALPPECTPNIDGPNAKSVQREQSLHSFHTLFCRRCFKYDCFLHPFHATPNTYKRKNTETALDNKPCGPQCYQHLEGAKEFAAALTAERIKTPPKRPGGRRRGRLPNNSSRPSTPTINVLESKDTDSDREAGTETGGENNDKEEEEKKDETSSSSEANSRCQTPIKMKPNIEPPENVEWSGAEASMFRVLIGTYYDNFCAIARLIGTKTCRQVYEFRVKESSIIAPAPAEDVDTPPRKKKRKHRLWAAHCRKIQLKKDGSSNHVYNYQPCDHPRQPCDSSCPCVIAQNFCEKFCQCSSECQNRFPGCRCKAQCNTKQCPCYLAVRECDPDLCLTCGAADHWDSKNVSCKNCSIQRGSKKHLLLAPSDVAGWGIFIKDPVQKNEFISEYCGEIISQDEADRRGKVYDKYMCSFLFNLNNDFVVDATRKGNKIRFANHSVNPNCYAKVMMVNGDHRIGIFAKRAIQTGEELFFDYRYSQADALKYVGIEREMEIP
T1 sequence (Q6ZN18 whole entry partner): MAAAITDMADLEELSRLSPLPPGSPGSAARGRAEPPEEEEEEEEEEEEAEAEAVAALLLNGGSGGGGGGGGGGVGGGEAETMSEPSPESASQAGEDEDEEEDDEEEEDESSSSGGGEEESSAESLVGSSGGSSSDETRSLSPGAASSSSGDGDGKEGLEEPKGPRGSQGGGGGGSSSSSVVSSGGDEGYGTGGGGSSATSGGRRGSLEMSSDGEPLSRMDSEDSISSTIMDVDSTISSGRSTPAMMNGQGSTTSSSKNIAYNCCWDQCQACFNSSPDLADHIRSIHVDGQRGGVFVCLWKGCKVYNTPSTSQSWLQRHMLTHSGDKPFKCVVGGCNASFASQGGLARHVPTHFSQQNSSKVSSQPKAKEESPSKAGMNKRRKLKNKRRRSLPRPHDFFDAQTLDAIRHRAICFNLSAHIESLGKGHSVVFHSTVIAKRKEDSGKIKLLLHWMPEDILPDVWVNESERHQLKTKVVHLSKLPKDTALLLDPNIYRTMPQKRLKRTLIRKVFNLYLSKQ
T1 sequence (O75530 whole entry partner): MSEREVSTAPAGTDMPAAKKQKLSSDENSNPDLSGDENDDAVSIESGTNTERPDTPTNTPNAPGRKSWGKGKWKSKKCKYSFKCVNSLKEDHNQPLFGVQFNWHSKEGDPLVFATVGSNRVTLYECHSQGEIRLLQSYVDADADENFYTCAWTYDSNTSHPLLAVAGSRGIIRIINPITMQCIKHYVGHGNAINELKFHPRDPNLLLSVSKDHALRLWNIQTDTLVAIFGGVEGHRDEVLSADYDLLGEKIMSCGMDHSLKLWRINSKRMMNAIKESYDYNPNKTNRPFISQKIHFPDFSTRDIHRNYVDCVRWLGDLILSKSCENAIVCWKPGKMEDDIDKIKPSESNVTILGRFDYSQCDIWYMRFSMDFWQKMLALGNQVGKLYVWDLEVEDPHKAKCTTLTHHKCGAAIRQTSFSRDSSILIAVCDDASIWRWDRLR
T1 sequence (Q09028 whole entry partner): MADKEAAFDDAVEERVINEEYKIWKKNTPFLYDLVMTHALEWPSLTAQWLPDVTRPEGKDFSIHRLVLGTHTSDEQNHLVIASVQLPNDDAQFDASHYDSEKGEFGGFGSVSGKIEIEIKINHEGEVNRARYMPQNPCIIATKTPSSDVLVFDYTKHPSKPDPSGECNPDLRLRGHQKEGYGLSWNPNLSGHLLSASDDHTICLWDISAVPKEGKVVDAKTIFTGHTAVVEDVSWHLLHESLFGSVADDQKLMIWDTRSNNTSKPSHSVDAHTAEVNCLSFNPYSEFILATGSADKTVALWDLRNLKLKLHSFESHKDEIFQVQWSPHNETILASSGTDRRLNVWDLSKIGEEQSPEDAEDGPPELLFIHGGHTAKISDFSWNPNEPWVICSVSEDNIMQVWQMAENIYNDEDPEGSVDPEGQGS
T1 sequence (Q15022 whole entry partner): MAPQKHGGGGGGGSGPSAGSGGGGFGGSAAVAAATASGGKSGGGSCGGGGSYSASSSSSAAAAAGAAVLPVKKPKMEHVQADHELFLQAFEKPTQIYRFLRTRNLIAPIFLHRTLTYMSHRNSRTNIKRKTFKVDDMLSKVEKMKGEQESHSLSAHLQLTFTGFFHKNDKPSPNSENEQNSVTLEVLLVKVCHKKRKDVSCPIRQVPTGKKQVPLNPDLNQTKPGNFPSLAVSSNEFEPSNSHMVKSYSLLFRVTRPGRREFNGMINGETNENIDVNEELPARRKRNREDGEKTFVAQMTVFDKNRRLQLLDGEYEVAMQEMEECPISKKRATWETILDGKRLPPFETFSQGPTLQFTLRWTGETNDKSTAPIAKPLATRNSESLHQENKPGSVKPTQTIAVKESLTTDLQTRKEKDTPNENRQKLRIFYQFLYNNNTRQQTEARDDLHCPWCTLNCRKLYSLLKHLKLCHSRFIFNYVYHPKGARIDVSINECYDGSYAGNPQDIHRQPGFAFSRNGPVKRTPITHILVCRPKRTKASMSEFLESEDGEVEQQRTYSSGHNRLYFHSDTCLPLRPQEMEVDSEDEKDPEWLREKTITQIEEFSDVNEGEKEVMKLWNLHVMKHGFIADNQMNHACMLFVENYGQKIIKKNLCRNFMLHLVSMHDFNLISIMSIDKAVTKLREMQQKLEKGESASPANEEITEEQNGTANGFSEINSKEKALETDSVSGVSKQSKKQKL

SMILES	IC50 (Wild-type PRC2/EZH2) [µM]	IC50 (Karpas422 cells) [µM]	IC50 (WSUDLCL-2 cells) [µM]
COc1cc(C)[nH]c(=O)c1CN1CCn2ccc3cc(-c4c(C)noc4C)c(C)c(c32)C1=O [Compound 15, 9-(3,5-dimethylisoxazol-4-yl)-2-((4-methoxy-6-methyl-2-oxo-1,2-dihydropyridin-3-yl)methyl)-10-methyl-3,4-dihydro-[1,4]diazepino[6,7,1-HI]indol-1(2H)-one]	0.0178	0.0501	0.0012
COc1cc(C)[nH]c(=O)c1CN1CCn2ccc3cc(-c4c(C)nn(CCO)c4C)c(Cl)c(c32)C1=O [Compound 7, 10-chloro-9-(1-(2-hydroxyethyl)-3,5-dimethyl-1H-pyrazol-4-yl)-2-((4-methoxy-6-methyl-2-oxo-1,2-dihydropyridin-3-yl)methyl)-3,4-dihydro-[1,4]diazepino[6,7,1-HI]indol-1(2H)-one]	3.65		
COc1cc(C)[nH]c(=O)c1CN1CCn2ccc3cc(-c4c(C)nn(C)c4C)c(Cl)c(c32)C1=O [Compound 4, 10-chloro-2-((4-methoxy-6-methyl-2-oxo-1,2-dihydropyridin-3-yl)methyl)-9-(1,3,5-trimethyl-1H-pyrazol-4-yl)-3,4-dihydro-[1,4]diazepino[6,7,1-HI]indol-1(2H)-one]	2.53		
COc1cc(C)[nH]c(=O)c1CN1CC(C)n2ccc3cc(-c4c(C)noc4C)c(Cl)c(c32)C1=O (stereo not shown) [Compound 16, 10-chloro-9-(3,5-dimethylisoxazol-4-yl)-2-((4-methoxy-6-methyl-2-oxo-1,2-dihydropyridin-3-yl)methyl)-4-methyl-3,4-dihydro-[1,4]diazepino[6,7,1-HI]indol-1(2H)-one]		0.158	0.0046
COc1cc(C)[nH]c(=O)c1CN1CCn2cnc3cc(-c4c(C)noc4C)c(Cl)c(c32)C1=O [Compound 13, 5-chloro-4-(3,5-dimethylisoxazol-4-yl)-7-((4-methoxy-6-methyl-2-oxo-1,2-dihydropyridin-3-yl)methyl)-8,9-dihydro-2,7,9a-triazabenzo[cd]azulen-6(7H)-one]		0.359	0.0561
COc1cc(C)[nH]c(=O)c1CN1CCn2cc(Cl)c3cc(-c4c(C)cnn4C)c(Cl)c(c32)C1=O [Compound 6, 7,10-dichloro-9-(1,4-dimethyl-1H-pyrazol-5-yl)-2-((4-methoxy-6-methyl-2-oxo-1,2-dihydropyridin-3-yl)methyl)-3,4-dihydro-[1,4]diazepino[6,7,1-HI]indol-1(2H)-one]	1.12		
COc1cc(C)[nH]c(=O)c1CN1CCn2ccc3cc(-c4c(C)nn(CC#N)c4C)c(Cl)c(c32)C1=O [Compound 8, 2-(4-(10-chloro-2-((4-methoxy-6-methyl-2-oxo-1,2-dihydropyridin-3-yl)methyl)-1-oxo-1,2,3,4-tetrahydro-[1,4]diazepino[6,7,1-HI]indol-9-yl)-3,5-dimethyl-1H-pyrazol-1-yl)acetonitrile]	1.09		
COc1cc(C)[nH]c(=O)c1CN1CCN2CCc3cc(-c4c(C)noc4C)c(Cl)c(c32)C1=O [Compound 3, 10-chloro-9-(3,5-dimethylisoxazol-4-yl)-2-((4-methoxy-6-methyl-2-oxo-1,2-dihydropyridin-3-yl)methyl)-3,4,6,7-tetrahydro-[1,4]diazepino[6,7,1-HI]indol-1(2H)-one]	0.0199		
COc1cc(C)[nH]c(=O)c1CN1C(=O)c2c(Cl)c(-c3c(C)noc3C)cc3ccn(c23)CC1C (stereo not shown) [Compound 17, 10-chloro-9-(3,5-dimethylisoxazol-4-yl)-2-((4-methoxy-6-methyl-2-oxo-1,2-dihydropyridin-3-yl)methyl)-3-methyl-3,4-dihydro-[1,4]diazepino[6,7,1-HI]indol-1(2H)-one]	0.014	0.035	0.0012
COc1cc(C)[nH]c(=O)c1CN1CCn2ncc3cc(-c4c(C)noc4C)c(Cl)c(c32)C1=O [Compound 12, 5-chloro-4-(3,5-dimethylisoxazol-4-yl)-7-((4-methoxy-6-methyl-2-oxo-1,2-dihydropyridin-3-yl)methyl)-8,9-dihydro-[1,4]diazepino[6,7,1-HI]indazol-6(7H)-one]		0.0876	0.011

Further lines, with some results ahead:

IC50 (Wild-type PRC2/EZH2) [µM]	IC50 (Karpas422 cells) [µM]	SMILES	IC50 (WSUDLCL-2 cells) [µM]
0.0215		COc1cc(C)[nH]c(=O)c1CN1CCn2ccc3cc(C(OC)C4COC4)c(Cl)c(c32)C1=O (stereo not shown) [Compound 9, 10-chloro-9-(methoxy(oxetan-3-yl)methyl)-2-((4-methoxy-6-methyl-2-oxo-1,2-dihydropyridin-3-yl)methyl)-3,4-dihydro-[1,4]diazepino[6,7,1-HI]indol-1(2H)-one]	
0.557	0.934	COc1cc(C)[nH]c(=O)c1CN1CCn2ccc3cc([C@@H](OC)C4COC4)c(Cl)c(c32)C1=O [Compound 11, (S)-10-chloro-9-(methoxy(oxetan-3-yl)methyl)-2-((4-methoxy-6-methyl-2-oxo-1,2-dihydropyridin-3-yl)methyl)-3,4-dihydro-[1,4]diazepino[6,7,1-HI]indol-1(2H)-one]	0.104
0.0072	0.0114	COc1cc(C)[nH]c(=O)c1CN1CCn2ccc3cc([C@H](OC)C4COC4)c(Cl)c(c32)C1=O [Compound 10, (R)-10-chloro-9-(methoxy(oxetan-3-yl)methyl)-2-((4-methoxy-6-methyl-2-oxo-1,2-dihydropyridin-3-yl)methyl)-3,4-dihydro-[1,4]diazepino[6,7,1-HI]indol-1(2H)-one]	0.0024
0.253		COc1cc(C)[nH]c(=O)c1CN1CCn2ccc3cc(-c4c(C)cnn4C)c(Cl)c(c32)C1=O [Compound 5, 10-chloro-9-(1,4-dimethyl-1H-pyrazol-5-yl)-2-((4-methoxy-6-methyl-2-oxo-1,2-dihydropyridin-3-yl)methyl)-3,4-dihydro-[1,4]diazepino[6,7,1-HI]indol-1(2H)-one]	
0.0038		CCN(c1cc2ccn3c2c(c1Cl)C(=O)N(Cc1c(OC)cc(C)[nH]c1=O)CC3)C1COC1 [Compound 2, 10-chloro-9-(ethyl(oxetan-3-yl)amino)-2-((4-methoxy-6-methyl-2-oxo-1,2-dihydropyridin-3-yl)methyl)-3,4-dihydro-[1,4]diazepino[6,7,1-HI]indol-1(2H)-one]	
	0.052	COc1cc(C)[nH]c(=O)c1CN1CCn2ccc3cc(-c4c(C)noc4C)c(Cl)c(c32)C1=O [Compound 1, 10-chloro-9-(3,5-dimethylisoxazol-4-yl)-2-((4-methoxy-6-methyl-2-oxo-1,2-dihydropyridin-3-yl)methyl)-3,4-dihydro-[1,4]diazepino[6,7,1-HI]indol-1(2H)-one]	0.0038
0.0118	0.0287	COc1cc(C)[nH]c(=O)c1CN1CCn2ccc3cc(C(OC)C4COC4)c(C)c(c32)C1=O (stereo not shown) [Compound 14, 9-(methoxy(oxetan-3-yl)methyl)-2-((4-methoxy-6-methyl-2-oxo-1,2-dihydropyridin-3-yl)methyl)-10-methyl-3,4-dihydro-[1,4]diazepino[6,7,1-HI]indol-1(2H)-one]	0.0048
